Numbered stars: 1 amine (or outer) side, 2 acyl side, 3 side chain; on linkers, the order of the positions; unused ones are H or OH. Bridge positions count the residues as written; N and C are the ends. Square brackets hold non-standard residues; d marks the D form. Peptide text beside a SMILES is read from it. I, II: the chains in the order shown. Actinocin(9to1) = Cc1c2oc3c(C)ccc(C(=O)[*:1])c3nc-2c(C(=O)[*:2])c(N)c1=O; NMeV = CN[C@H](C(=O)O)C(C)C; Sar = CNCC(=O)O
Test system: Saccharomyces cerevisiae INVSc1 yeast cells
Assay: Yeast growth inhibition experiment (Quant-Screen Yeast Assay and OD600)
Type: cell-based
Conditions: INVSc1 in YPD medium, 6 hours at 30° C., different concentrations
Description: Serial dilutions of a yeast cell suspension prepared in culture media was placed in each well of a 96-well plate (100 μl/well). Next, 100 μl of reaction buffer containing the CDP-Star® substrate was added to each well. The light emission was then immediately measured in a luminometer (TR717®) (1 sec/well) or NorthStar® (60 sec/plate).
An equivalent aliquot of yeast cell suspension (INVSc1) were inoculated into tubes with 2 ml of minimum medium containing various concentrations of leucine and were grown overnight at 30° C. with shaking. The overnight cultures were then measured by a spectrophotometer at 600 nm to estimate cell density. Next, each of the overnight cultures was transferred (100 μl/well) into a 96-well microplate in triplicate. An equal volume of reaction buffer was added. The plate was placed in TR717™ (a luminometer) to measure total light emission.
100 μof log phase growing yeast cells, INVSc1, were inoculated into tubes with 1 ml of YPD medium containing different concentrations of actinomycin D, a […]. The cultures were grown at 30° C. with shaking for 6 hours. The cultures were measured for OD600 in a spectrophotometer. Next, the cells were transferred (100 μl/well) in triplicate in a 96-well microplate. The assay was performed as in the Growth Stimulation Experiment set forth above.

Cc1c2oc3c(C)ccc(C(=O)N[C@@H]4C(=O)N[C@H](C(C)C)C(=O)N5CCC[C@H]5C(=O)N(C)CC(=O)N(C)[C@@H](C(C)C)C(=O)O[C@@H]4C)c3nc-2c(C(=O)N[C@@H]2C(=O)N[C@H](C(C)C)C(=O)N3CCC[C@H]3C(=O)N(C)CC(=O)N(C)[C@@H](C(C)C)C(=O)O[C@@H]2C)c(N)c1=O [actinomycin D] (I: T[dV]P[Sar][NMeV] / II: T[dV]P[Sar][NMeV]; ester I:1-I:C, II:1-II:C; linker I:N-II:N via Actinocin(9to1))
O.D. measurement (OD600): declined with increasing concentrations | signal intensity (Quant-Screen Yeast Assay, endogenous alkaline phosphatase, light emission): declined with increasing concentrations
